Converted amounts (≈) assume the structure as drawn.
How the values were obtained:
Assay type in all cases: cell-based
Candida albicans CCH 442 = assay: In vitro antifungal MIC, Candida albicans CCH 442; conditions: CCH442; Candida albicans CCH 442; 35°-37° C., 48 hours; read-out: MIC
Method: (§1) The in vitro antifungal activity of the compounds of the present invention against a variety of fungiwas determined as follow: Test medium was prepared by dissolving first 5 g of dextrose and then 6.7 g of Bacto Yeast Nitrogen Base® (commercially available from Difco Laboratories) in 100 mL of distilled water. The solution was filter-sterilized and diluted 1:10 with 0.01M pH 8.0 phosphate buffer solution, and the final pH of the medium adjusted to about pH 7.0 when necessary with either 0.1N hydrochloric acid solution of 0.1N sodium hydroxide solution. […] These concentrated stock solutions were diluted to a concentration of 200 μg/mL (twice the highest concentration desired for testing) with the test medium. Amphotericin B, similarly prepared, was used as a reference antifungal agent.
(§2) The test organisms were then inoculated into test tubes containing approximately 3 to 10 mL of test medium and the test tubes incubated overnight at 37° C. A sample of each overnight culture was placed in a test tube and diluted using the test medium until a reading of 95% transmittance was obtained in a conventional UV/visible spectrophotometer set to 560 nm. The adjusted cultures were then diluted 1:50 with test medium. These diluted cultures served as the inocula for the assays which follow and were used within 15 minutes of preparation.
(§3) Next, 2-fold serial dilutions of each test compound in test medium were prepared in a 96-well microtiter plate using calibrated microdiluters attached to an automatic (hand-held) diluter (available from Dynatech Laboratories).
(§4) Using sterile calibrated droppers or a multi-point dispenser, the diluted inoculum suspension was added to each of the wells in the plate. When inoculation was complete, the microtiter tray was covered with a plastic plate sealer to minimize evaporation. After the plate had been sealed, a hole was made above each well with a sterile 26-gauge syringe needle in order to allow gas exchange. If plate sealers were not available, the microtiter trays were stacked in groups of five or less with an empty tray on top. The microtiter trays were then incubated in a humidified chamber at 35°-37° C. for 48 hours or until growth was visible in the growth control wells.
(§5) The minimum inhibitory concentration (MIC) was defined as the lowest concentration of test compound yielding no growth, a slight haze or sparsely isolated colonies on the inoculum spot as compared to the growth control containing no test compound.

[1] = system: Cryptococcus albidus ATCC 34140; assay: In vitro antifungal MIC, Cryptococcus albidus ATCC 34140; conditions: Naganishia albida, ATCC34140; Cryptococcus albidus ATCC 34140; 35°-37° C., 48 hours; read-out: MIC
Method: as §1, §2, §3, §4, §5

[2] = system: Aspergillus niger ATCC 16404; assay: In vitro antifungal MIC, Aspergillus niger ATCC 16404; conditions: ATCC16404; Aspergillus niger ATCC 16404; 35°-37° C., 48 hours; read-out: MIC
Method: as §1, §2, §3, §4, §5

[3] = system: Candida tropicalis NRRL-Y-112; assay: In vitro antifungal MIC, Candida tropicalis NRRL-Y-112; conditions: NRRLY112; Candida tropicalis NRRL-Y-112; 35°-37° C., 48 hours; read-out: MIC
Method: as §1, §2, §3, §4, §5

[4] = system: Candida albicans ATCC 38247; assay: In vitro antifungal MIC, Candida albicans ATCC 38247; conditions: ATCC38247; Candida albicans ATCC 38247; 35°-37° C., 48 hours; read-out: MIC
Method: as §1, §2, §3, §4, §5

[5] = system: Candida albicans ATCC 62376; assay: In vitro antifungal MIC, Candida albicans ATCC 62376; conditions: ATCC62376; Candida albicans ATCC 62376; 35°-37° C., 48 hours; read-out: MIC
Method: as §1, §2, §3, §4, §5

[6] = system: Torulopsis glabrata ATCC 15545; assay: In vitro antifungal MIC, Torulopsis glabrata ATCC 15545; conditions: Nakaseomyces glabratus, ATCC15545; Torulopsis glabrata ATCC 15545; 35°-37° C., 48 hours; read-out: MIC
Method: as §1, §2, §3, §4, §5

[7] = system: Candida albicans ATCC 10231; assay: In vitro antifungal MIC, Candida albicans ATCC 10231; conditions: ATCC10231; Candida albicans ATCC 10231; 35°-37° C., 48 hours; read-out: MIC
Method: as §1, §2, §3, §4, §5

Candida kefyr ATCC 28838 = assay: In vitro antifungal MIC, Candida kefyr ATCC 28838; conditions: Kluyveromyces marxianus, ATCC28838; Candida kefyr ATCC 28838; 35°-37° C., 48 hours; read-out: MIC
Method: as §1, §2, §3, §4, §5

Candida albicans 579A = assay: In vitro antifungal MIC, Candida albicans 579A; conditions: Candida albicans 579A; 35°-37° C., 48 hours; read-out: MIC
Method: as §1, §2, §3, §4, §5

| SMILES | MIC (Candida albicans CCH 442) | MIC [1] | MIC [2] | MIC [3] | MIC [4] | MIC [5] | MIC [6] | MIC [7] | MIC (Candida kefyr ATCC 28838) | MIC (Candida albicans 579A) |
| --- | --- | --- | --- | --- | --- | --- | --- | --- | --- | --- |
| CCOC(CCCN1Sc2ccccc2[S+]1[O-])OCC (centres unmarked) [Example 25, 2-(4,4-diethoxybutyl)-1,3,2-benzodithiazole-1-oxide] | 1.56 µg/mL (≈ 4.95 µM) | 12.5 µg/mL (≈ 39.6 µM) | 3.12 µg/mL (≈ 9.89 µM) | 12.5 µg/mL (≈ 39.6 µM) | 1.56 µg/mL (≈ 4.95 µM) | 6.25 µg/mL (≈ 19.8 µM) | 6.25 µg/mL (≈ 19.8 µM) | 6.25 µg/mL (≈ 19.8 µM) | 3.12 µg/mL (≈ 9.89 µM) | 3.12 µg/mL (≈ 9.89 µM) |
| [O-][S+]1c2ccccc2SN1c1ccc2c(c1)OCO2 (centres unmarked) [Example 31] | 25 µg/mL (≈ 85.8 µM) | 50 µg/mL (≈ 172 µM) | 12.5 µg/mL (≈ 42.9 µM) | 50 µg/mL (≈ 172 µM) | 25 µg/mL (≈ 85.8 µM) | 25 µg/mL (≈ 85.8 µM) | 12.5 µg/mL (≈ 42.9 µM) | 12.5 µg/mL (≈ 42.9 µM) | 12.5 µg/mL (≈ 42.9 µM) | 25 µg/mL (≈ 85.8 µM) |
| [O-][S+]1c2ccccc2SN1C1C2CC3CC(C2)CC1C3 (centres unmarked) [Example 29, 2-(2-adamantyl)-1,3,2-benzodithiazole-1-oxide] | 25 µg/mL (≈ 81.8 µM) | 25 µg/mL (≈ 81.8 µM) | 3.12 µg/mL (≈ 10.2 µM) | 12.5 µg/mL (≈ 40.9 µM) | 50 µg/mL (≈ 164 µM) | 6.25 µg/mL (≈ 20.5 µM) | 12.5 µg/mL (≈ 40.9 µM) | 6.25 µg/mL (≈ 20.5 µM) | 3.12 µg/mL (≈ 10.2 µM) | 12.5 µg/mL (≈ 40.9 µM) |
| CCCCCCCN1Sc2ccccc2[S+]1[O-] (centres unmarked) [Example 5, 2-n-heptyl-1,3,2-benzodithiazole-1-oxide] | 0.78 µg/mL (≈ 2.89 µM) | 3.12 µg/mL (≈ 11.6 µM) | 0.39 µg/mL (≈ 1.45 µM) | 0.78 µg/mL (≈ 2.89 µM) | 0.78 µg/mL (≈ 2.89 µM) | 0.78 µg/mL (≈ 2.89 µM) | 0.39 µg/mL (≈ 1.45 µM) | 0.39 µg/mL (≈ 1.45 µM) | 0.39 µg/mL (≈ 1.45 µM) | 0.2 µg/mL (≈ 0.742 µM) |

Continued, values first:

| MIC (Candida albicans CCH 442) | MIC [1] | MIC [2] | MIC [3] | MIC [4] | MIC [5] | MIC [6] | MIC [7] | MIC (Candida kefyr ATCC 28838) | MIC (Candida albicans 579A) | SMILES |
| --- | --- | --- | --- | --- | --- | --- | --- | --- | --- | --- |
| 1.56 µg/mL (≈ 6.11 µM) | 12.5 µg/mL (≈ 48.9 µM) | 1.56 µg/mL (≈ 6.11 µM) | 3.12 µg/mL (≈ 12.2 µM) | 25 µg/mL (≈ 97.9 µM) | 1.56 µg/mL (≈ 6.11 µM) | 1.56 µg/mL (≈ 6.11 µM) | 1.56 µg/mL (≈ 6.11 µM) | 0.78 µg/mL (≈ 3.05 µM) | 3.12 µg/mL (≈ 12.2 µM) | CC(C)(C)CCN1Sc2ccccc2[S+]1[O-] (centres unmarked) [Example 15] |
| 0.78 µg/mL (≈ 3.69 µM) | 3.12 µg/mL (≈ 14.8 µM) | 0.2 µg/mL (≈ 0.946 µM) | 0.78 µg/mL (≈ 3.69 µM) | 6.25 µg/mL (≈ 29.6 µM) | 0.39 µg/mL (≈ 1.85 µM) | 0.39 µg/mL (≈ 1.85 µM) | 0.39 µg/mL (≈ 1.85 µM) | 0.2 µg/mL (≈ 0.946 µM) | 0.39 µg/mL (≈ 1.85 µM) | C=CCN1Sc2ccccc2[S+]1[O-] (centres unmarked) [Example 10, 2-allyl-1,3,2-benzodithiazole-1-oxide] |
| 12.5 µg/mL (≈ 58.1 µM) | 1.56 µg/mL (≈ 7.25 µM) | 6.25 µg/mL (≈ 29 µM) | 12.5 µg/mL (≈ 58.1 µM) | 1.56 µg/mL (≈ 7.25 µM) | 25 µg/mL (≈ 116 µM) | 6.25 µg/mL (≈ 29 µM) | 12.5 µg/mL (≈ 58.1 µM) | 0.78 µg/mL (≈ 3.62 µM) | 12.5 µg/mL (≈ 58.1 µM) | [O-][S+]1c2ccccc2SN1CCO (centres unmarked) [Example 18, 2-(2-hydroxyethyl)-1,3,2-benzodithiazole-1-oxide] |
| 100 µg/mL (≈ 341 µM) | 12.5 µg/mL (≈ 42.6 µM) | 12.5 µg/mL (≈ 42.6 µM) | 25 µg/mL (≈ 85.2 µM) | 100 µg/mL (≈ 341 µM) | 100 µg/mL (≈ 341 µM) | 6.25 µg/mL (≈ 21.3 µM) | 50 µg/mL (≈ 170 µM) | 1.56 µg/mL (≈ 5.32 µM) | 50 µg/mL (≈ 170 µM) | CS(=O)(=O)OCCN1Sc2ccccc2[S+]1[O-] (centres unmarked) [Example 19, O-(2-(1,3,2-benzodithiazole-2-yl-1-oxide)ethyl)methanesulfonate] |

From patent US5140018A, “1,3,2-benzodithiazole-1-oxide compounds” (Abbott Laboratories, priority 1991, dated 1992)
